Series [1] can be described thus: Pharmacokinetics (PK) test in cynomolgus monkeys. The format is in vivo, cynomolgus monkey. The settings on record: male, plasma, cynomolgus monkey. As for the experimental part:
Cynomolgus monkeys (4 to 6 years old, male) were raised under the conditions of voluntary intake of solid food (Oriental Yeast Co., Ltd) and tap water and fasted from the evening of the day before initiation of administration and subjected to an experiment. Note that blood was sampled at 4 hours after administration (on and after 16:00), and thereafter feeding was restarted.
Dosing solution for intravenous administration was injected through the saphenous vein by use of a syringe needle (attached to a syringe barrel). The oral administration into the stomach was compulsively carried out by inserting a catheter into the nasal cavity.
The blood sampled was centrifuged at 4° C. and 1800×g for 15 minutes to obtain the plasma. The plasma thus obtained was stored at about −80° C. until use in preparation of analysis samples. The plasma obtained from a cynomolgus monkey to which a test compound was administrated, is referred to as a plasma sample; whereas the plasma obtained from a cynomolgus monkey to which a test compound was not administered, is referred to as the blank plasma.
The resulting solution was vortexed and cooled at 4° C. for 10 minutes. A sample for a calibration curve was prepared by adding a standard solution for a calibration curve to the blank plasma and subjecting the resulting mixture to the same treatment. After cooling, each of the samples was spun at 4° C. and 2000 rpm for 10 minutes by a centrifuge (Hitachi Koki Co., Ltd.). The resulting supernatant was used as a sample for LC/MS/MS analysis.
The resulting solution was vortexed and cooled at 4° C. for 10 minutes. A sample for a calibration curve was prepared by adding a standard solution for a calibration curve to the blank plasma and subjecting the resulting mixture to the same treatment. After cooling, each of the samples was spun at 4° C. and 2000 rpm for 10 minutes by a centrifuge (Hitachi Koki Co., Ltd.). The resulting supernatant was diluted 10 fold with 70 vol % acetonitrile containing 0.1 vol % formic acid and subjected as a sample for LC/MS/MS analysis. The LC/MS/MS analysis conditions were as follows:
The test-compound concentrations in the plasma at each sampling time point in the case of intravenous administration or oral administration were calculated and PK analysis was carried out for individual monkeys. PK parameters were calculated by using WinNonlin (Pharsight), in accordance with an analysis independent of a model (intravenous administration: Bolus IV Administration, oral administration: Extravascular Administration; Weight=1/y in both administrations). Furthermore, bioavailability (BA) was calculated based on the following Expression (3) by dividing AUC0-∞iv (time 0 to ∞) at the time of the intravenous administration and AUC0-∞po (time 0 to ∞) at the time of the oral administration by respective dose values to obtained as normalized values. Bioavailability (BA)=(AUC0-∞,po/dose)/(AUC0-∞,iv/dose) (3)

Series [2] relates to Canine aortic smooth muscle cells. As to the kind of experiment: Inducibility of cytoplasmic vacuolation in canine aortic smooth muscle cells. The series is classed as cell-based. Also noted: key: Present: The term “present” in the tables means that cytoplasmic vacuolation was observed; Absent: the term “absent” means that cytoplasmic vacuolation was not observed. The settings on record: Concentration: 1.0 mmol/L, Treatment time: 24 hours. On the procedure: (§1) As a test compound, the compound of Example 3, 9, 11, 12 or compounds of Comparative Examples 2 to 6 were used. Canine aortic smooth muscle cells (Canine Aortic Smooth Muscle Cells, supply source: Toyobo Co., Ltd.) or human aortic smooth muscle cells of (T/G HA-VSMG, supply source: ATCC) were treated with a test compound (1.0 or 1.2 mmol/L in concentration) for 24 hours or 2 weeks. The cells were stained with HE, immunohistochemically for LAMP-2 or toluidine blue, and thereafter the presence or absence of cytoplasmic vacuolation was determined by using an optical microscope.

The test system of a further series is Cr1: CD (SD) rats. As to the kind of experiment: Evaluation of safety in rat, two-week oral administration test. The series is classed as in vivo. The settings on record: for findings in examination items: in vivo, po. On the procedure:
As a test compound, the compound of Example 11 or Comparative Example 2 was used. The compound of Example 11 or Comparative Example 2 was administered orally to Cr1: CD (SD) rats (7 weeks old, female and male; from Charles River Laboratories, Inc.), for 2 weeks. Clinical observation, body weight measurement, food intake measurement, ophthalmologic examination (the compound of Example 11, alone), hematological examination, blood chemistry examination, urinalysis, bone marrow examination, pathological anatomical examination, organ weight measurement, histopathological examination and immunotoxicity test were carried out. In addition, toxicokinetics (TK) measurement was carried out on Day 1 and Day 14 after administration. It was confirmed that each test compound was exposed. The administration dose of a test compound was specified as 0, 250, 500, 1000 mg/kg/day and administration volume was specified as 10 mL/kg. As an administration solvent, phosphate-buffered saline was used for the compound of Example 11 and distilled water was used for the compound of Comparative Example 2.

Series [3] relates to human aortic smooth muscle cells (T/G HA-VSMG). As to the kind of experiment: Inducibility of cytoplasmic vacuolation in human aortic smooth muscle cells. The format is cell-based. The settings on record: Concentration: 1.0 mmol/L, Treatment time: 24 hours, sulfate monohydrate. On the procedure:
as §1

For series [4], the system named is mouse partial sciatic nerve ligation model (neuropathic pain). As to the kind of experiment: Mouse partial sciatic nerve ligation model (Seltzer model), von Frey test. The settings on record: oral administration, von Frey test at 1, 2, 3 h. The format is in vivo. As for the experimental part:
The mouse partial sciatic nerve ligation model was prepared in accordance with the method of Seltzer et al. (Malmberg et al., Pain, vol. 76, p. 215-222, 1998).
Slc: ICR mice (5 weeks old, male; from Japan SLC, Inc.) or Cr1: CD1 (ICR) mice (5 weeks old, male; from CHARLES RIVER LABORATORIES JAPAN, INC.) were anesthetized with sodium pentobarbital (70 mg/kg, intraperitoneal administration). The sciatic nerve at the femoral region of the right hind paw of each mouse was exposed and triply ligated tightly with silk suture of 8-0 (from NATSUME SEISAKUSHO CO., LTD.) under a stereomicroscope so that only half thickness of the nerve was trapped in the ligature. A group of mice thus treated was designated as a partial sciatic nerve ligation group. A group of mice whose sciatic nerve was just exposed and not ligated was designated as a sham surgery group.
Evaluation of neuropathic pain (hereinafter referred to as von Frey test) was performed as follows. Mice were conditioned for at least one hour in an acrylic cage for measurement (from NATSUME SEISAKUSHO CO. LTD. or SHINANO SEISAKUSHO) placed on a wire net. Thereafter, using a filament (from North Coast Medical or neuroscience) which exerted a pressure of 0.16 g, the mice were subjected to mechanical tactile stimulus by applying the filament to the plantar surface of the right hind paw 3 times, each for 3 seconds, with an interval of 3 seconds.
Seven days after the sciatic nerve ligation surgery, the compound of Example 1, 2, 3, 4, 5, 7, 8, 9, 10, 11, 12 or 13 (10 mg/kg for each of the compounds of Example 1, 2, 3, 4, 5, 8, 10 and 13, 0.01 to 1 mg/kg for the compound of Example 7, 0.01 to 10 mg/kg for the compound of Example 9; 0.001 to 0.1 mg/kg for the compound of Example 11; and 0.01 to 1 mg/kg for the compound of Example 12) or pregabalin as a positive control (10 mg/kg; Bosche Scientific) was dissolved in distilled water and orally administered to mice of the partial sciatic nerve ligation group. The groups of the mice in the partial sciatic nerve ligation mouse to which the compound of Example 1, 2, 3, 4, 5, 7, 8, 9, 10, 11, 12 or 13 was administered were designated as a “partial sciatic nerve ligation+the compound of Example 1” group; a “partial sciatic nerve ligation+the compound of Example 2” group; a “partial sciatic nerve ligation+the compound of Example 3” group; a “partial sciatic nerve ligation+the compound of Example 4” group; a “partial sciatic nerve ligation+the compound of Example 5” group; a “partial sciatic nerve ligation+the compound of Example 7” group; a “partial sciatic nerve ligation+the compound of Example 8” group; a “partial sciatic nerve ligation+the compound of Example 9” group; a “partial sciatic nerve ligation+the compound of Example 10” group; a “partial sciatic nerve ligation+the compound of Example 11” group; a “partial sciatic nerve ligation+the compound of Example 12” group; and a “partial sciatic nerve ligation+the compound of Example 13” group, respectively. The partial sciatic nerve ligation mouse group to which pregabalin was administered was designated as a “partial sciatic nerve ligation+pregabalin” group. A group wherein distilled water was orally administered to the mice of the partial sciatic nerve ligation group was designated as a “partial sciatic nerve ligation+distilled water” group. A group wherein distilled water was orally administered to the mice of the sham surgery group was designated as a “sham surgery+distilled water” group.
The von Frey test was carried out before oral administration of a test compound (pre-value), one hour, two hours, and three hours after the oral administration of a test compound.
Slc: ICR mice (5 weeks old, male; Japan SLC, Inc.) were anesthetized with sodium pentobarbital (70 mg/kg, intraperitoneal administration).

The test system is the same in series [5]. The series is described as above. The settings on record: Comparative Example 7: oral, 7 days after ligation, 1-3 h after dosing; 0.01-1 mg/kg (Comp Ex 1), 10 mg/kg (Comp Ex 3-6, pregabalin); vs ligation+distilled water; t-test corrected by Dunnett. The format is in vivo.

We go through four compounds from patent US10173999B2, “Cyclic amine derivative and pharmaceutical use thereof” (Toray Industries, Inc., priority 2015, dated 2019).

As a reminder, the bioavailability is the share of a dose that reaches the circulation, judged against a reference dose that is usually intravenous. In general, clearance refers to the volume of plasma or blood freed of the substance per unit of time. As usually defined, the AUC(0-inf) is total exposure, with the tail of the curve extrapolated.

Entries after “also recorded” stand apart in the source; their conditions may differ. Structures can show the parent of a compound that is named as a salt.

As for `CN(C)C1CCN(C(=O)CCc2nccn2C)CC1` [Comparative Example 2, 1-(4-(dimethylamino)piperidin-1-yl)-3-(1-methyl-1H-imidazol-2-yl)propan-1-one sulfate monohydrate], the bioavailability in series [1] (1 mg/kg oral vs 1 mg/kg intravenous, read-out: BA (bioavailability)) was 42.6%. In addition, the clearance in series [1] (intravenous administration 1 mg/kg, single, read-out: CLtot (total body clearance) (converted)) was 8.35 mL/min/kg. Moreover, the AUC(0-inf) in series [1] (oral administration 1 mg/kg, single) is 849 ng·h/mL. In series [1] (oral administration 1 mg/kg, single, read-out: Cmax (maximum plasma concentration)), the Cmax came out at 146 ng/mL. The half-life in series [1] (oral administration 1 mg/kg, single, read-out: t1/2 (elimination half-life in the plasma) (converted)) is 394 min. Moreover, the “Inducibility of cytoplasmic vacuolation” value in series [2] is “Present”; in series [3], “has the inducibility of cytoplasmic vacuolation; also recorded: Present”. The “findings in examination items” value with Cr1: CD (SD) rats (250 mg/kg/day) was “abnormality was not observed”; with Cr1: CD (SD) rats (500 mg/kg/day), “vacuolation was observed in e.g., the media of blood vessels of submandibular gland”. In addition, the “no observed adverse effect level” value with Cr1: CD (SD) rats (oral, 2 weeks) came to 250 mg/kg/day.

With `CCn1ccnc1CCC(=O)N1CCC(N(C)C)CC1` [Comparative Example 3, 1-(4-(dimethylamino)piperidin-1-yl)-3-(1-ethyl-1H-imidazol-2-yl)propan-1-one hydrochloride], in series [4], the “persistence of analgesic action” value is “tended to decrease 2 hours and 3 hours later”; the “time of strongest analgesic action after oral administration” value (“time of strongest analgesic action” below) is “one”. Besides, in series [2], the “Inducibility of cytoplasmic vacuolation” value is reported as “Present”. The “analgesic action in von Frey test (total score)” value (from here on “analgesic action … (total score)”) in series [5] was “statistically significant analgesic action”.

Consider `CCCn1ccnc1CCC(=O)N1CCC(N(C)C)CC1` [Comparative Example 4, 1-(4-(dimethylamino)piperidin-1-yl)-3-(1-propyl-1H-imidazol-2-yl)propan-1-one hydrochloride], for which, in series [4], the “persistence of analgesic action” value is “tended to decrease 2 hours and 3 hours later”; the “time of strongest analgesic action” value is “one”. The “Inducibility of cytoplasmic vacuolation” value in series [2] is “Present”. For the same compound, the “analgesic action … (total score)” value in series [5] is on record as “statistically significant analgesic action”.

For `CCCCn1ccnc1CCC(=O)N1CCC(N(C)C)CC1` [Comparative Example 5, 1-(4-(dimethylamino)piperidin-1-yl)-3-(1-butyl-1H-imidazol-2-yl)propan-1-one hydrochloride], in series [4], the “persistence of analgesic action” value was “tended to decrease 2 hours and 3 hours later”; the “time of strongest analgesic action” value is on record as “one”. Further, the “Inducibility of cytoplasmic vacuolation” value in series [2] is “Present”. In series [5], the “analgesic action … (total score)” value is reported as “statistically significant analgesic action”.
